Assay results reported in the supplement of paper PMC10307832.

Experiments:
Assay in all cases: relative viability (nuclei count vs DMSO), 5 days (fraction); higher = more cells survive
Tanzisertib + Pemetrexed = compound: O[C@H]1CC[C@H](Nc2ncc3nc(Nc4c(F)cc(F)cc4F)n([C@H]4CCOC4)c3n2)CC1 [Tanzisertib] + Nc1nc2[nH]cc(CCc3ccc(C(=O)N[C@@H](CCC(=O)O)C(=O)O)cc3)c2c(=O)[nH]1 [Pemetrexed] (partner 0.2 µM)
How it was run: (§1)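 Relative viability was taken as the ratio of nuclei in treated wells to nuclei in vehicle wells. Lung cancer cell lines in 1536-well plates received compounds by pin tool one day after seeding, either one drug alone or a fixed anchor-drug dose plus five library-drug doses (not always all listed) in √10 steps. Nuclei were counted on 4× images after 5 days of treatment, and values are medians of duplicate plates.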

Tanzisertib + Dasatinib = compound: O[C@H]1CC[C@H](Nc2ncc3nc(Nc4c(F)cc(F)cc4F)n([C@H]4CCOC4)c3n2)CC1 [Tanzisertib] + Cc1nc(Nc2ncc(C(=O)Nc3c(C)cccc3Cl)s2)cc(N2CCN(CCO)CC2)n1 [Dasatinib] (partner 0.075 µM)
How it was run: as §1

[1] = compound: C[C@@H](N)c1ccc(C(=O)Nc2ccnc3[nH]ccc23)cc1 + Nc1nc2[nH]cc(CCc3ccc(C(=O)N[C@@H](CCC(=O)O)C(=O)O)cc3)c2c(=O)[nH]1 [Pemetrexed] (partner 0.2 µM)
How it was run: as §1

[2] = compound: C[C@@H](N)c1ccc(C(=O)Nc2ccnc3[nH]ccc23)cc1 + COc1cc2c(Oc3ccc(NC(=O)C4(C(=O)Nc5ccc(F)cc5)CC4)cc3F)ccnc2cc1OCCCN1CCOCC1 [Foretinib] (partner 0.25 µM)
How it was run: as §1

Cell Line	relative viability (Tanzisertib + Pemetrexed; first compound 0.253 µM)	relative viability (Tanzisertib + Pemetrexed; first compound 0.8 µM)	relative viability (Tanzisertib + Pemetrexed; first compound 2.53 µM)	relative viability (Tanzisertib + Pemetrexed; first compound 8 µM)	relative viability (Tanzisertib + Dasatinib; first compound 0.08 µM)	relative viability (Tanzisertib + Dasatinib; first compound 0.253 µM)	relative viability (Tanzisertib + Dasatinib; first compound 0.8 µM)	relative viability (Tanzisertib + Dasatinib; first compound 2.53 µM)	relative viability (Tanzisertib + Dasatinib; first compound 8 µM)	relative viability ([1]; first compound 0.04 µM)	relative viability ([1]; first compound 0.1265 µM)	relative viability ([1]; first compound 0.4 µM)	relative viability ([1]; first compound 1.265 µM)	relative viability ([1]; first compound 4 µM)	relative viability ([2]; first compound 0.04 µM)	relative viability ([2]; first compound 0.1265 µM)	relative viability ([2]; first compound 0.4 µM)	relative viability ([2]; first compound 4 µM)	relative viability (Tanzisertib + Pemetrexed; first compound 0.08 µM)	relative viability ([2]; first compound 1.265 µM)
HCC-366	0.201	0.152	0.204	0.328	0.81	0.606	0.629	0.62	0.542	0.154	0.148	0.163	0.241	0.184	0.987	0.926	0.936	1.07		
HCC-827	0.229	0.25	0.251	0.175	0.457	0.26	0.35	0.201	0.105		0.272	0.268	0.292	0.264	1.1	1.13	1.09	0.945	0.266	1.11
HOP-62	0.346	0.31	0.315	0.353	0.733	0.654	0.659	0.644	0.569	0.286	0.344	0.252	0.298	0.288	1.09	1.05	1.03	0.982	0.301	1.16
IA-LM															1.28	1.33	1.43	1.08		1.2
LC-2-ad	0.292	0.275	0.272	0.294	0.789	0.642	0.686	0.684	0.403	0.263	0.267	0.248	0.279	0.259	0.963	0.867	0.873	0.661	0.282	
LCLC-97TM1	0.164	0.146	0.169	0.173	0.953	0.878	0.831	0.786	0.901	0.207	0.188	0.172	0.0771	0.21	0.928	0.976	0.99	0.94	0.172	1.06
LCLC-103H	0.472	0.451	0.432	0.468	0.496	0.466	0.427	0.402	0.468	0.417	0.426	0.493	0.51	0.407	0.901	0.821	0.69	0.643	0.521	0.77
LK-2	0.273	0.161	0.234	0.244	0.281	0.287	0.318	0.28	0.207	0.345	0.264	0.22	0.282	0.362	1.32		1.49	1.46	0.294	
LOU-NH91	0.42	0.399	0.403	0.387	0.597	0.585	0.564	0.515	0.391	0.378	0.378	0.393	0.44	0.368	0.814	0.981	0.851	0.683	0.42	0.804
